Literature values, collected in patent US9949970B2, “Synthesis of new benzothiazole derivatives as potential anti-tubercular agents” (priority 2010, dated 2018).
Values after ≈ are worked out from the molar mass of the structure shown.

Test system: M. tuberculosis H37Rv
Conditions: closest benzothiazole compounds; cited from earlier work

Row | SMILES | MIC [µg/mL]
1 | O=[N+]([O-])c1cc(CSc2nc3ccccc3s2)cc([N+](=O)[O-])c1 | 2 (≈ 5.76 µM)
2 | O=[N+]([O-])c1ccc(CSc2nc3ccccc3s2)c([N+](=O)[O-])c1 | 2 (≈ 5.76 µM)
3 | Clc1ccccc1/C=N/c1nc2ccccc2s1 | 73 (≈ 268 µM)
